Source: US20200362309A1, “Method for preparing BAP or BA cells” (Anagenesis Biotechnologies S.A.S., priority 2017, published 2020)

System: BA cells differentiated from hiPS-derived BAP
Test: Lipolysis: free glycerol release by BA cells after forskolin stimulation
Type: cell-based, human
Details: forskolin 10 μM, 24 hours; BAP derived at day 12 or 16, 5 passages, differentiated for 17 days
Method: Lipolysis: The BAP were differentiated for 17 days. Then the cells were maintained for 24 hours in DMEM 1g/Iglucose supplemented with BSA 0,2%. Lipolysis was stimulated with forskolin (10 μM) for 24 hours.

C=C[C@@]1(C)CC(=O)[C@]2(O)[C@@]3(C)[C@@H](O)CCC(C)(C)[C@@H]3[C@H](O)[C@H](OC(C)=O)[C@@]2(C)O1 [forskolin]
increase of the free glycerol released, treated cells compared to untreated cells: about 60%
